This passage reports IC50 results from patent US9440950B2, “Arginine methyltransferase inhibitors and uses thereof” (Epizyme, Inc., priority 2013, dated 2016).

As usually defined, the IC50 is the concentration needed to halve the response being measured.

Structures are written as SMILES.

This test concerns the target T1, human PRMT3 (Homo sapiens, UniProt O60678).
T1 construct: GST-tagged PRMT3; made in house; host or cells: E. coli BL21(DE3) Gold (pGEX-KG)
In words: PRMT3 Biochemical Assay. Conditions: peptide substrate, 3H-SAM Flashplate assay. From the text:
S-adenosylmethionine (SAM), S-adenosylhomocysteine (SAH), bicine, Tween20, dimethylsulfoxide (DMSO), bovine skin gelatin (BSG), isopropyl-P3-D-thiogalactopyranoside (IPTG), and Tris(2-carboxyethyl)phosphine hydrochloride solution (TCEP) were purchased from Sigma-Aldrich at the highest level of purity possible. ^3H-SAM was purchase from American Radiolabeled Chemicals with a specific activity of 80 Ci/mmol. 384-well streptavidin Flashplates were purchased from PerkinElmer.
Peptide containing the classic RMT substrate motif was synthesized with an N-terminal linker-affinity tag motif and a C-terminal amide cap by 21st Century Biochemicals. The peptide was purified by high-performance liquid chromatography (HPLC) to greater than 95% purity and confirmed by liquid chromatography mass spectrometry (LC-MS). The sequence was Biot-Ahx-[…]-amide (SEQ ID NO.:11).
Full-length human PRMT3 (NM_005788.3) isoform 1 transcript clone was amplified from an HEK 293 cDNA library and subcloned into pGEX-KG (GE Life Sciences). The resulting construct encodes an N-terminal GST tag and a thrombin cleavage sequence ([…] […] […] […]) (SEQ ID NO.: 12) fused directly to Cys 2 of PRMT3.
E. coli (BL21(DE3) Gold, Stratagene) made competent by the CaCl2 method were transformed with the PRMT3 construct and ampicillin selection. Protein over-expression was accomplished by growing the PRMT3 expressing E. coli clone and inducing expression with 0.3 mM IPTG at 16° C. The culture was grown for 12 hours, harvested by centrifugation, and stored at −80° C. for purification.
GST-tagged PRMT3 eluted with 25-400 mM phosphate in buffer C. Protein was concentrated and buffer was exchanged to 20 mM Tris, 150 mM NaCl, 5% glycerol, 5 mM β-mercaptoethanol, pH7.8 by ultrafiltration. The purity of recovered protein was 70%.
General Procedure for PRMT3 Enzyme Assays on Peptide Substrates.
The assays were all performed in a buffer consisting of 20 mM Bicine (pH=7.6), 1 mM TCEP, 0.005% BSG, and 0.002% Tween 20, prepared on the day of use. Compounds in 100% DMSO (1 ul) were spotted into a polypropylene 384-well V-bottom plates (Greiner) using a Platemate Plus outfitted with a 384-channel head (Thermo Scientific). DMSO (1 ul) was added to Columns 11, 12, 23, 24, rows A-H for the maximum signal control and 1 ul of SAH, a known product and inhibitor of PRMT3, was added to columns 11, 12, 23, 24, rows I-P for the minimum signal control. A cocktail (40 ul) containing the PRMT3 enzyme was added by Multidrop Combi (Thermo-Fisher). The compounds were allowed to incubate with PRMT3 for 30 min at room temperature, then a cocktail (10 ul) containing SAM and peptide was added to initiate the reaction (final volume=51 ul). The final concentrations of the components were as follows: PRMT3 was 0.5 nM, ^3H-SAM was 100 nM, non-radiolabeled SAM was 1.8 uM, peptide was 330 nM, SAH in the minimum signal control wells was 1 mM, and the DMSO concentration was 2%. The assays were stopped by the addition of potassium chloride (10 ul) to a final concentration of 100 mM. 50 ul of the reaction in the 384-well polypropylene plate was then transferred to a 384-well Flashplate and the biotinylated peptides were allowed to bind to the streptavidin surface for at least 1 hour before being washed once with 0.1% Tween20 in a Biotek ELx405 plate washer. The plates were then read in a PerkinElmer TopCount plate reader to measure the quantity of ^3H-labeled peptide bound to the Flashplate surface, measured as disintegrations per minute (dpm) or alternatively, referred to as counts per minute (cpm).
Where dpm=disintegrations per minute, cmpd=signal in assay well, and min and max are the respective minimum and maximum signal controls.
Where top and bottom are the normally allowed to float, but may be fixed at 100 or 0 respectively in a 3-parameter fit. The Hill Coefficient normally allowed to float but may also be fixed at 1 in a 3-parameter fit. […]

T1 sequence (O60678 with tags, fused parts or gaps): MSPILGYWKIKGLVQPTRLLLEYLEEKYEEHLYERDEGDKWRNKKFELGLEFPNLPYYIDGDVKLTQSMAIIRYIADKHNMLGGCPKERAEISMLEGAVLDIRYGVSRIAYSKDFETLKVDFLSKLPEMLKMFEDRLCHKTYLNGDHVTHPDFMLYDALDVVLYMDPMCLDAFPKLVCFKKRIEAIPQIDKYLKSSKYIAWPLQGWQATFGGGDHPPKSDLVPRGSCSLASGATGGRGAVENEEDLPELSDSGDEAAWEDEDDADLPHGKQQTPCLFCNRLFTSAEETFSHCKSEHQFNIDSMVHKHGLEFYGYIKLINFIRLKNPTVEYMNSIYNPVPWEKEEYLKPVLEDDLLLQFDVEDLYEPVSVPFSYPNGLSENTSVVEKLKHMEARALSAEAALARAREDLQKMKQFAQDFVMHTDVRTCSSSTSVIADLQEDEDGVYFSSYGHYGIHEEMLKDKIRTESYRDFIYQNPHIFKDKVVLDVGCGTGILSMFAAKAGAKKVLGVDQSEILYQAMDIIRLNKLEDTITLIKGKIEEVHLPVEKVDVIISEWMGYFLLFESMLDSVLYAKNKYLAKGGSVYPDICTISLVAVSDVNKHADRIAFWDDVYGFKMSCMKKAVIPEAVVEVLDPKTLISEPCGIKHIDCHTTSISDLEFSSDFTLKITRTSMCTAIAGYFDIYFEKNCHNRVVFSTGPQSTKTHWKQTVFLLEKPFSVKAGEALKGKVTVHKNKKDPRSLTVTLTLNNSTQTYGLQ

The compound `COc1ncccc1-c1n[nH]cc1CN(C)CCN` [Compound 15] registered a 50% inhibitory concentration (IC50) of at least 10 µM.
For `CN(CCN)Cc1c[nH]nc1-c1cncc(S(C)(=O)=O)c1` [Compound 4] the value was at least 10 µM.
For `COc1cc(-c2n[nH]cc2CN(C)CCN)ccn1` [Compound 11] the value was at least 10 µM; for `Cc1cncc(-c2n[nH]cc2CN(C)CCN)c1` [Compound 6], at least 10 µM; for `COc1ccncc1-c1n[nH]cc1CN(C)CCN` [Compound 16], at least 10 µM.
For `CN(CCN)Cc1c[nH]nc1-c1cncc(C#N)c1` [Compound 18] the value was at least 10 µM; for `CN(CCN)Cc1c[nH]nc1-c1cncc(F)c1` [Compound 7], 3.01 to 10 µM.
For the compound `COc1ncc(Cl)cc1-c1n[nH]cc1CN(C)CCN` [Compound 14], the IC50 was at least 10 µM.
For `CN(CCN)Cc1c[nH]nc1-c1ccc(C(F)(F)F)nc1` [Compound 13, N^1-methyl-N^1-((3-(6-(trifluoromethyl)pyridin-3-yl)-1H-pyrazol-4-yl)methyl)ethane-1,2-diamine] the value was 3.01 to 10 µM; for `Cc1cc(-c2n[nH]cc2CN(C)CCN)cnc1Cl` [Compound 10], 1.01 to 3 µM.
For `Cc1ccncc1-c1n[nH]cc1CN(C)CCN` [Compound 17] the value was at least 10 µM.
The compound `CN(CCN)Cc1c[nH]nc1-c1cncc(Cl)c1` [Compound 19] registered an IC50 of 1.01 to 3 µM.
For `COc1ccc(-c2n[nH]cc2CN(C)CCN)cn1` [Compound 5] the value was at least 10 µM.
Compound `CNCCN(C)Cc1c[nH]nc1-c1cccnc1` [Compound 1] yielded an IC50 of at least 10 µM.
Take `CNCCN(C)Cc1c[nH]nc1-c1ccc(N)nc1` [Compound 3]: the IC50 is at least 10 µM.
The compound `CN(CCN)Cc1c[nH]nc1-c1cccnc1` [Compound 8] gave an IC50 of at least 10 µM.
For `COc1cc(-c2n[nH]cc2CN(C)CCN)c(Cl)cn1` [Compound 12] the value was at least 10 µM; for `CNCCN(C)Cc1c[nH]nc1-c1ccc(O)nc1` [Compound 2], at least 10 µM; for `CN(CCN)Cc1c[nH]nc1-c1ccncc1` [Compound 9], 1.01 to 3 µM.
